Values quoted from earlier work, collected in patent US7364877B2, “Polynucleotides encoding disorazole polyketide synthase polypeptides” (Kosan Biosciences, Inc., priority 2002, dated 2008).

Key:
mammalian cell = conditions: mammalian cells
[1] = test system: filamentous fungi belonging to the Ascomycetes, Basidiomycetes, Zygomycetes, Oomycetes, and Deuteromycetes families; conditions: including filamentous fungi

For C/C=C/[C@H](O)C(C)(C)[C@@H]1C\C=C/C=C\C=C\[C@H](OC)Cc2nc(co2)C(=O)O[C@H](C(C)(C)[C@@H](O)/C=C/C)C/C=C\[C@H]2O[C@H]2/C=C/C=C\c2nc(co2)C(=O)O1 [Disorazole A, disorazole A], the “mammalian cell cytotoxic activity (MIC)” value (mammalian cell) is given as 0.003 to 0.03 ng/mL, the “activity against different fungi (MIC)” value [1] is given as 100 to 1000 ng/mL and the activity against yeast (yeast) is given as “not highly active”. For the same compound, the activity against bacteria (bacteria) was “not highly active”.
